From US20230181624A1, “COMPOSITIONS AND METHODS FOR TREATMENT OF GASTROINTESTINAL BLEEDING” (Intact Therapeutics, Inc., priority 2020, published 2023)

Key:
mouse tail = experiment: Mouse tail-snip assay (bleeding time); format: in vivo; conditions: amputated tail submerged in 1.5 ml of test formulation; compared with water
Protocol: A formulation of the invention was tested for the ability to prevent bleeding using a mouse tail-snip assay. A portion of tail one centimeter in length was amputated from an anesthetized mouse, and the remaining portion of the tail was immediately submerged in 1.5 ml of test formulation. Bleeding time was recorded as time from amputation to complete cessation of bleeding. The following formulations were tested: water; a solution of 5% tranexamic acid (TXA) in water; a gelled formulation containing Poloxamer 407 (TDP); and a gelled formulation containing 5% tranexamic acid and TDP. Each formulation was tested on seven animals total over the course of three experiments.
FIG. 8 is a graph showing bleeding time of mouse tails exposed to various formulations in a mouse tail-snip assay. *P<0.05, **P<0.01, ***P<0.001, ****P<0.0001, based on one-way ANOVA with the Tukey post-test.

[1] = Drug release from solidified Poloxamer 407 thermogel; format: physicochemical; conditions: within 3 hours
From the text: The properties of thermogels based on Poloxamer 407 were investigated. Poloxamer 407 has a molecular weight of 12,000 Da and a PEO/PPO ratio of 2:1 by weight, and it is Generally Recognized As Safe (GRAS) by the FDA.

Structure (SMILES)	bleeding time (mouse tail)	drug being delivered [1] [%]
NC[C@H]1CC[C@H](C(=O)O)CC1 [TXA, tranexamic acid]	decrease bleeding time	–
CCN(CC)CC(=O)Nc1c(C)cccc1C [lidocaine]	–	~60
